Data as given in patent US20100216799A1, “PHTHALAZINE AND PYRIDO[3,4-D]PYRIDAZINE COMPOUNDS AS H1 RECEPTOR ANTAGONISTS” (Glaxo Group Limited, priority 2007, published 2010).

Experiments:
Format in all cases: cell-based
[1] = target: T1, human H1 receptor (Homo sapiens, UniProt P35367); experiment: Histamine H1 functional antagonist assay (FLIPR): antagonist duration after washout; conditions: at one or more time points, typically 30-270 min
T1 construct: expressed in transfected cells
Protocol: (§1) The human H1 receptor is cloned using known procedures described in the literature [Biochem. Biophys. Res. Commun., 201(2):894 (1994)]. Chinese hamster ovary (CHO) cells stably expressing the human H1 receptor are generated according to known procedures described in the literature [Br. J. Pharmacol., 117(6):1071 (1996)].
To determine the antagonist duration, cells are cultured overnight in non-coated black-walled clear bottom 96-well tissue culture plates, are washed with PBS and are incubated with a concentration of antagonist chosen to give an approximate DR in the range 30-300. Following the 30 min antagonist incubation period, the cells are washed two or three times with 200 μl of PBS and then 100 μl Tyrodes buffer is added to each well to initiate antagonist dissociation. Following incubation for predetermined times, typically 30-270 min at 37° C., the cells are then washed again with 200 μl PBS and are incubated with 100 μl Tyrodes buffer containing Brilliant Black, probenecid and Fluo-4 for 45 min at 37° C., as described above. After this period, the cells are challenged with histamine in the FLIPR™ as described above. The dose ratio at each time point is used to determine the fractional H1 receptor occupancy by the following equation: fractional receptor occupancy=(DR-1)/DR. The decrease in receptor occupancy over time approximates to a straight line and is analysed by linear regression. The slope of this straight line fit is used as an index of the dissociation rate of the antagonist. The dose ratios for antagonist treated cells and for antagonist treated and washed cells at each time point are used to calculate a relative dose ratio (rel DR) which is also used as an index of antagonist duration. Antagonists with long duration of action produce rel DR values close to 1, and antagonists with short duration of action produce rel DR values that approaches the dose ratio value obtained for antagonist treatment alone.

[2] = target: T1, human H1 receptor; experiment: Histamine H1 functional antagonist assay (FLIPR): determination of functional pKi values; conditions: CHO cells expressing human H1 receptor, histamine at EC80, read-out: average pKa (pKb) at H1 (converted)
Protocol: as §1
The histamine H1 cell line is seeded into non-coated black-walled clear bottom 384-well tissue culture plates in alpha minimum essential medium (Gibco/Invitrogen, cat no. 22561-021), supplemented with 10% dialysed foetal calf serum (Gibco/Invitrogen cat no. 12480-021) and 2 mM L-glutamine (Gibco/Invitrogen cat no 25030-024) and is maintained overnight at 5% CO2, 37° C.
Excess medium is removed from each well to leave 10 μl. 30 μl loading dye (250 μM Brilliant Black, 2 μM Fluo-4 diluted in Tyrodes buffer+probenecid (145 mM NaCl, 2.5 mM KCl, 10 mM HEPES, 10 mM D-glucose, 1.2 mM MgCl2, 1.5 mM CaCl2, 2.5 mM probenecid, pH adjusted to 7.40 with NaOH 1.0 M)) is added to each well and the plates are incubated for 60 min at 5% CO2, 37° C.
10 μl of test compound, diluted to the required concentration in Tyrodes buffer+probenecid (or 10 μl Tyrodes buffer+probenecid as a control) is added to each well and the plate is incubated for 30 min at 37° C., 5% CO2. The plates are then placed into a FLIPR™ (Molecular Devices, UK) to monitor cell fluorescence (λex=488 nm, λEM=540 nm) in the manner described in Sullivan et al., (In: Lambert DG (ed.), Calcium Signaling Protocols, New Jersey: Humana Press, 1999, 125-136) before and after the addition of 10 μl histamine at a concentration that results in the final assay concentration of histamine being EC80.
Functional antagonism is indicated by a suppression of histamine induced increase in fluorescence, as measured by the FLIPR™ system (Molecular Devices). By means of concentration effect curves, functional affinities are determined using standard pharmacological mathematical analysis.

[3] = target: T1, human H1 receptor; experiment: Histamine H1 functional antagonist assay (FLIPR): determination of antagonist pA2; conditions: CHO cells expressing H1 receptor, shift of histamine concentration response curve
Protocol: The human H1 receptor is cloned using known procedures described in the literature [Biochem. Biophys. Res. Commun., 201(2):894 (1994)]. Chinese hamster ovary (CHO) cells stably expressing the human H1 receptor are generated according to known procedures described in the literature [Br. J. Pharmacol., 117(6):1071 (1996)]. The histamine H1 receptor expressing CHO cells are seeded into non-coated black-walled clear bottom 96-well tissue culture plates as described above. Following overnight culture, growth medium is removed from each well, washed with 200 μl PBS and is replaced with 50 μl loading dye (250 μM Brilliant Black, 1 μM Fluo-4 diluted in Tyrodes buffer+probenecid (145 mM NaCl, 2.5 mM KCl, 10 mM HEPES, 10 mM D-glucose, 1.2 mM MgCl2, 1.5 mM CaCl2, 2.5 mM probenecid, pH adjusted to 7.40 with NaOH 1.0 M)). Cells are incubated for 45 min at 37° C. The loading buffer is removed and the cells are washed as above, and 90 μl of Tyrodes buffer+probenecid is added to each well. 10 μl of test compound, diluted to the required concentration in Tyrodes buffer+probenecid (or 10 μl Tyrodes buffer+probenecid as a control) is added to each well and the plate is incubated for 30 min at 37° C., 5% CO2. The plates are then placed into a FLIPR™ (Molecular Devices, UK) to monitor cell fluorescence (λex=488 nm, λEM=540 nm) in the manner described in Sullivan et al., (In: Lambert DG (ed.), Calcium Signaling Protocols, New Jersey: Humana Press, 1999, 125-136) before and after the addition of 50 μl histamine over a concentration range of 1 mM-0.1 nM. The resultant concentration response curves are analysed by non-linear regression using a standard four parameter logistic equation to determine the histamine EC50, the concentration of histamine required to produce a response of 50% of the maximum response to histamine. The antagonist pA2 is calculated using the following standard equation: pA2=log(DR-1)−log [B] where DR=dose ratio, defined as EC50antagonist-treated/EC50control and [B]=concentration of antagonist.

T1 sequence (P35367 whole entry): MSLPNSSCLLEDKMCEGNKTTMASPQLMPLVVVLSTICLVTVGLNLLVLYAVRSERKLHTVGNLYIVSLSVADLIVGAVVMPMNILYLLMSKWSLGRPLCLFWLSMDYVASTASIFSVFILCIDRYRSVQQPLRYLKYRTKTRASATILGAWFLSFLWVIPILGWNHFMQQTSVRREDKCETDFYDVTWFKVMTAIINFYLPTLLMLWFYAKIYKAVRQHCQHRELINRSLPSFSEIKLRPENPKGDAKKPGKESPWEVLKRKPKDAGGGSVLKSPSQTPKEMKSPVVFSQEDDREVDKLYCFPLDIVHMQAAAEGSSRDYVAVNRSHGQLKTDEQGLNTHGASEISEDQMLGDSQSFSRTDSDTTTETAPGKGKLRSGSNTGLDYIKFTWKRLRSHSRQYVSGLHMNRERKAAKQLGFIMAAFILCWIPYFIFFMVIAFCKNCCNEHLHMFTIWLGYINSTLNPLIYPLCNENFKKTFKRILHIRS

| SMILES | duration of action compared with azelastine [1] | Kb [2] [nM] | Kb [3] [nM] |
| --- | --- | --- | --- |
| COCCCNS(=O)(=O)CCN1CCC[C@@H]1Cn1nc(Cc2ccc(Cl)cc2)c2ccccc2c1=O [Example 10, 2-((2R)-2-{[4-[(4-Chlorophenyl)methyl]-1-oxo-2(1H)-phthalazinyl]methyl}-1-pyrrolidinyl)-N-[3-(methyloxy)propyl]ethanesulfonamide] | longer duration of action than azelastine | < 100 | < 10 |
| CC(C)S(=O)(=O)NCCN1CCC[C@@H]1Cn1nc(Cc2ccc(Cl)cc2)c2ccccc2c1=O [Example 8, N-[2-((2R)-2-{[4-[(4-Chlorophenyl)methyl]-1-oxo-2(1H)-phthalazinyl]methyl}-1-pyrrolidinyl)ethyl]-2-propanesulfonamide] | longer duration of action than azelastine | < 100 | < 1 |
| CCCS(=O)(=O)NCCN1CCC[C@@H]1Cn1nc(Cc2ccc(Cl)cc2)c2ccccc2c1=O [Example 7, N-[2-((2R)-2-{[4-[(4-Chlorophenyl)methyl]-1-oxo-2(1H)-phthalazinyl]methyl}-1-pyrrolidinyl)ethyl]-1-propanesulfonamide] | longer duration of action than azelastine | < 100 | < 1 |
| CCS(=O)(=O)CCN1CCC[C@@H]1Cn1nc(Cc2ccc(Cl)cc2)c2ccccc2c1=O [Example 1, 4-[(4-Chlorophenyl)methyl]-2-({(2R)-1-[2-(ethylsulfonyl)ethyl]-2-pyrrolidinyl}methyl)-1(2H)-phthalazinone] | – | – | < 1 |
| CCS(=O)(=O)CCN1CCC[C@@H]1Cn1nc(Cc2ccc(Cl)cc2)c2cnccc2c1=O [Example 13, 4-[(4-Chlorophenyl)methyl]-2-({(2R)-1-[2-(ethylsulfonyl)ethyl]-2-pyrrolidinyl}methyl)pyrido[3,4-d]pyridazin-1(2H)-one] | – | – | < 10 |
| CCS(=O)(=O)C(C)CCN1CCC[C@@H]1Cn1nc(Cc2ccc(Cl)cc2)c2ccccc2c1=O (stereo partly drawn) [Example 4, 4-[(4-Chlorophenyl)methyl]-2-({(2R)-1-[3-(ethylsulfonyl)butyl]-2-pyrrolidinyl}methyl)-1(2H)-phthalazinone] | – | – | < 1 |
| O=c1c2ccccc2c(Cc2ccc(Cl)cc2)nn1C[C@H]1CCCN1CCS(=O)(=O)N1CCCCC1 [Example 2, 4-[(4-Chlorophenyl)methyl]-2-({(2R)-1-[2-(1-piperidinylsulfonyl)ethyl]-2-pyrrolidinyl}methyl)-1(2H)-phthalazinone] | – | < 100 | – |
| CCS(=O)(=O)[C@H](C)CCN1CCC[C@@H]1Cn1nc(Cc2ccc(Cl)cc2)c2ccccc2c1=O [Example 5B, 4-[(4-Chlorophenyl)methyl]-2-({(2R)-1-[(3R)-3-(ethylsulfonyl)butyl]-2-pyrrolidinyl}methyl)-(2H)-phthalazinone] | – | – | < 10 |
| CCS(=O)(=O)CCCN1CCC[C@@H]1Cn1nc(Cc2ccc(Cl)cc2)c2ccccc2c1=O [Example 3, 4-[(4-Chlorophenyl)methyl]-2-({(2R)-1-[3-(ethylsulfonyl)propyl]-2-pyrrolidinyl}methyl)-1(2H)-phthalazinone] | longer duration of action than azelastine | – | < 1 |
| CCCNC(=O)NCCN1CCC[C@@H]1Cn1nc(Cc2ccc(Cl)cc2)c2cnccc2c1=O [Example 14, N-[2-((2R)-2-{[4-[(4-chlorophenyl)methyl]-1-oxopyrido[3,4-d]pyridazin-2(1H)-yl]methyl}-1-pyrrolidinyl)ethyl]-M-propylurea] | – | – | < 1 |
| CCS(=O)(=O)NCCN1CCC[C@@H]1Cn1nc(Cc2ccc(Cl)cc2)c2ccccc2c1=O [Example 6, N-[2-((2R)-2-{[4-[(4-Chlorophenyl)methyl]-1-oxo-2(1H)-phthalazinyl]methyl}-1-pyrrolidinyl)ethyl]ethanesulfonamide] | longer duration of action than azelastine | – | < 1 |
| CCS(=O)(=O)[C@@H](C)CCN1CCC[C@@H]1Cn1nc(Cc2ccc(Cl)cc2)c2ccccc2c1=O [Example 5A, 4-[(4-Chlorophenyl)methyl]-2-({(2R)-1-[(3S)-3-(ethylsulfonyl)butyl]-2-pyrrolidinyl}methyl)-(2H)-phthalazinone] | – | – | < 10 |
| CCCNC(=O)NCCN1CCC[C@@H]1Cn1nc(Cc2ccc(Cl)cc2)c2ccccc2c1=O [Example 11, N-[2-((2R)-2-{[4-[(4-Chlorophenyl)methyl]-1-oxo-2(1H)-phthalazinyl]methyl}-1-pyrrolidinyl)ethyl]-M-propylurea] | longer duration of action than azelastine | – | < 1 |
| CCS(=O)(=O)CCCN1CCC[C@@H]1Cn1nc(Cc2ccc(Cl)cc2)c2cnccc2c1=O [Example 12, 4-[(4-Chlorophenyl)methyl]-2-({(2R)-1-[3-(ethylsulfonyl)propyl]-2-pyrrolidinyl}methyl)pyrido[3,4-d]pyridazin-1(2H)-one] | longer duration of action than azelastine | – | < 1 |
